Key:
[1] = Induction of IFN production in C3H/HeJ mouse splenocytes incubated for 18 hrs; format: functional; settings: Splenocyte, read-out: MEC
[2] = molecular target: T1, Toll-like receptor 8 (Homo sapiens, UniProt Q9NR97); experiment: Agonist activity at human TLR8 in HEK-Blue hTLR8 cells assessed as induction of SEAP production using nitrophenyl phosphate as substrate incubated for 20 hrs by microplate reader analysis; format: cell-based
T1 sequence (Q9NR97 whole entry): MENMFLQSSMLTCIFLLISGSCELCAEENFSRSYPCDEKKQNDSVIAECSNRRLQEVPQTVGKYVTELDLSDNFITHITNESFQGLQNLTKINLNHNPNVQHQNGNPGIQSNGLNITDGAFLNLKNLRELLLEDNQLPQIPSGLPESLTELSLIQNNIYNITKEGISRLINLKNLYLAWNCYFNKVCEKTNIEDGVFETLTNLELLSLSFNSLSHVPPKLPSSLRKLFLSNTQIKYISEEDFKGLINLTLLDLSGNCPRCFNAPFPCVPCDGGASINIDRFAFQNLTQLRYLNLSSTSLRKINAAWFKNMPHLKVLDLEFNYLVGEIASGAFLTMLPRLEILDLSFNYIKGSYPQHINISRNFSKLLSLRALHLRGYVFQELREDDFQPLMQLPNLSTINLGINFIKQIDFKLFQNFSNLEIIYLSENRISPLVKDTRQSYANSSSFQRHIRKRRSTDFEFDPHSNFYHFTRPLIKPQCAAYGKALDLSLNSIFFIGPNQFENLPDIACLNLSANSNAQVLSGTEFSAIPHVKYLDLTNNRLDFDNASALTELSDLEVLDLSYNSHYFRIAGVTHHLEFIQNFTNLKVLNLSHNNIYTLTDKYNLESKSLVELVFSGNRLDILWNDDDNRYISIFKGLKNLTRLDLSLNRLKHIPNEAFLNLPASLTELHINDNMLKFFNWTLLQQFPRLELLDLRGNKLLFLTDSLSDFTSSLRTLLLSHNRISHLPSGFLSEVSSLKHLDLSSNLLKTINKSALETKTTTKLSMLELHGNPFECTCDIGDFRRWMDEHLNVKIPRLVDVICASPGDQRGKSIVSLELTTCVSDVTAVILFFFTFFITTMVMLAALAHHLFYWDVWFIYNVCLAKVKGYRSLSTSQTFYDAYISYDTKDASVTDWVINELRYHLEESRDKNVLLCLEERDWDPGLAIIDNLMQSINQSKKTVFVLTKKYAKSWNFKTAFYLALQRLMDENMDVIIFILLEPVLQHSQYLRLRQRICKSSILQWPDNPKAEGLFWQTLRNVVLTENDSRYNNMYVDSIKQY

[3] = molecular target: T2, Toll-like receptor 7 (Homo sapiens, UniProt Q9NYK1); experiment: Agonist activity at recombinant human TLR7 transfected in HEK293 cells assessed as induction of SEAP production incubated overnight by SEAP reporter gene based assay; format: cell-based
T2 sequence (Q9NYK1 whole entry): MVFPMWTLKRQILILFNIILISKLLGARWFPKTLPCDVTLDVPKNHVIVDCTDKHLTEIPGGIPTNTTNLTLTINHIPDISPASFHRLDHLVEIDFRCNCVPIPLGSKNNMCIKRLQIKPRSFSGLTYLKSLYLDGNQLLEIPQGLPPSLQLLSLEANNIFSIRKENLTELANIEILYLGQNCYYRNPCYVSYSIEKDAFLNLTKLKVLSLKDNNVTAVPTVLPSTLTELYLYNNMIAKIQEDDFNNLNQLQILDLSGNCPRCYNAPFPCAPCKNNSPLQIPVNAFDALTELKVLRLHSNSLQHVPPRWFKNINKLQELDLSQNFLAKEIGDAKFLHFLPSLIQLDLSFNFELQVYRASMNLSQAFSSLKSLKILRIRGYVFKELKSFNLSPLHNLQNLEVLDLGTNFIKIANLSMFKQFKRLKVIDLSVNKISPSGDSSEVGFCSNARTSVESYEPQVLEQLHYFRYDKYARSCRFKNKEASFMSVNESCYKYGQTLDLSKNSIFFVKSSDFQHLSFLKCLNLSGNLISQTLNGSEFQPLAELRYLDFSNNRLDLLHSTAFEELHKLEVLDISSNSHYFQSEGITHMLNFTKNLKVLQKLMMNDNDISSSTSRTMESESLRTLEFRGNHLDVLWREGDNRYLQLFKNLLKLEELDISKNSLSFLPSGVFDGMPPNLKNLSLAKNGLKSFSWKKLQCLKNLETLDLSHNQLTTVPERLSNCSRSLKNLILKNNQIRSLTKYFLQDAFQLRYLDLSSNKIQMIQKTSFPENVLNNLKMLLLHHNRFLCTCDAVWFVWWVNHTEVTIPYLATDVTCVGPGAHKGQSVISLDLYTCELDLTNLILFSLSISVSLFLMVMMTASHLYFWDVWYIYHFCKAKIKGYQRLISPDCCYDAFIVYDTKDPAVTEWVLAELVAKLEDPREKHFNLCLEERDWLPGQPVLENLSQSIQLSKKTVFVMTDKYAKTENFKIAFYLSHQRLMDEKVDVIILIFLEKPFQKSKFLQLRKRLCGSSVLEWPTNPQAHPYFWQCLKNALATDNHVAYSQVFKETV

[4] = molecular target: T2, Toll-like receptor 7; experiment: Agonist activity at human TLR7 in HEK-Blue hTLR7 cells assessed as activation of NFkappaB by SEAP reporter gene based spectrophotometry assay; format: cell-based; settings: hek-blue htlr7
[5] = molecular target: T1, Toll-like receptor 8; experiment: Agonist activity at human TLR8 in HEK-Blue hTLR8 cells assessed as activation of NFkappaB by SEAP reporter gene based spectrophotometry assay; format: cell-based; settings: hek-blue htlr8
[6] = molecular target: T1, Toll-like receptor 8; experiment: Agonist activity at human TLR8 transfected in HEK293 cells assessed as induction of SEAP production incubated overnight; format: cell-based
[7] = molecular target: T1, Toll-like receptor 8; experiment: Agonist activity at human TLR8 (27 to 287 residues) in HEK-Blue hTLR8 cells assessed as induction of NFkappaB by SEAP reporter gene based spectrophotometry assay; format: cell-based
[8] = molecular target: T2, Toll-like receptor 7; experiment: Agonist activity at human TLR7 transfected in HEK293 cells assessed as induction of SEAP production incubated overnight by SEAP reporter gene based assay; format: cell-based
[9] = molecular target: T3, Toll-like receptor 7 (Homo sapiens) (UniProt Q9NYK1); experiment: (§1) Agonist activity at TLR7 (unknown origin); settings: filed as agonist
T3 sequence (whole entry): T2 sequence (Q9NYK1 whole entry)

[10] = molecular target: T4, Toll-like receptor 8 (Homo sapiens) (UniProt Q9NR97); experiment: (§2) Agonist activity at TLR8 (unknown origin)
T4 sequence (whole entry): T1 sequence (Q9NR97 whole entry)

[11] = molecular target: T2, Toll-like receptor 7; experiment: as §1
[12] = molecular target: T1, Toll-like receptor 8; experiment: as §2
[13] = organism: Homo sapiens; experiment: Selectivity index, ratio of EC50 for agonist activity at TLR8 (unknown origin) to EC50 for agonist activity at TLR7 (unknown origin)

CCCCc1nc(N)c2nc(O)n(Cc3ccccc3)c2n1
minimal effective concentration [1]: 0.03 µM

CCC[C@@H](CCO)Nc1nc(N)nc(C)c1Cc1ccc(CN(C)CCO)cc1OC
EC50 [2]: 2510 nM | EC50 [3]: < 5.01 nM

CCCCc1nc2c(NC(=O)CCC)nc3ccccc3c2s1
EC50 [4]: 490 nM | EC50 [5]: 420 nM

CCC[C@@H](CCO)Nc1nc(N)nc(C)c1Cc1ccc(CNC)cc1OC
EC50 [6]: 6460 nM | EC50 [3]: 3.02 nM

CCC[C@@H](CO)Nc1nc(N)nc(C)c1Cc1ccc(CN2CCCC2)cc1OC
EC50 [2]: 63.1 nM | EC50 [3]: < 5.89 nM

CCCCNc1nc(N)c2nc(O)n(Cc3ccccc3)c2n1
minimal effective concentration [1]: 0.1 µM

CCC[C@@H](CO)Nc1nc(N)nc(C)c1Cc1ccc(CN2CCNCC2)cc1OC
EC50 [6]: 5250 nM | EC50 [3]: 63.1 nM

CC(C)Oc1cc2ccccc2nc1N
EC50 [7]: 100000 nM

COCCc1nc2c(N)nc3ccccc3c2n1CCCCN(CCCN1CCOCC1)Cc1cccc(OCC(=O)OC(C)(C)C)c1
EC50 [8]: 114 nM

COc1ccc2cc1O/C=C\CCOc1nc(N)c3nc(O)n(c3n1)C2
MEC [9]: 2 µM | MEC [10]: > 25 µM

CCCCNc1nc(N)nnc1OCc1cccnc1
EC50 [11]: 1710 nM

CCCCNc1nc(N)nnc1OCc1ccccn1
EC50 [11]: 170 nM

COc1cc2cc(c1)O/C=C\CCOc1nc(N)c3nc(O)n(c3n1)C2
MEC [9]: 0.18 µM | MEC [10]: > 25 µM

CCCc1nc2c(NC(=O)CN=[N+]=[N-])nc3ccccc3c2s1
EC50 [4]: 3530 nM | EC50 [5]: 1200 nM

CCCCOc1nc(N)c2[nH]c(C#N)c(Cc3ccc(CN4CCCC4)nc3)c2n1
EC50 [11]: 1 nM

CCC[C@@H](CO)Nc1nc(N)nc(C)c1Cc1ccc(CN2CCN(C)CC2)cc1OC
EC50 [2]: 100 nM | EC50 [3]: < 6.31 nM

CCCCOc1nc(N)c2[nH]c(=O)n(Cc3ccccc3)c2n1
minimal effective concentration [1]: 0.001 µM

CCCCNc1nc(N)nnc1OC
EC50 [11]: 17500 nM

CCCCNc1nc(N)nnc1OC(C)C
EC50 [11]: 8270 nM

COc1cc2ccccc2nc1N
EC50 [7]: 100000 nM

Nc1nc2ccccc2c2sc(CCCC(F)(F)F)nc12
EC50 [4]: 2250 nM | EC50 [5]: 6290 nM

CC(C)Cc1nc2c(N)nc3ccccc3c2s1
EC50 [4]: 6960 nM | EC50 [5]: 1550 nM

CCCCOc1nc(N)c2[nH]cc(Cc3ccc(CN4CCCC4)cc3)c2n1
EC50 [11]: 100 nM

CCCC[C@H](CCO)Nc1nc(N)nnc1OC
EC50 [11]: 7800 nM

CC[C@H](C)Cc1nc2c(N)nc3ccccc3c2s1
EC50 [4]: 4740 nM | EC50 [5]: 2510 nM

CCOC(=O)C1=Cc2ccc(-c3cccc(C#N)c3)cc2N=C(N)C1
EC50 [11]: 30 nM | EC50 [12]: 15000 nM | Ratio EC50 [13]: 500

CCC[C@@H](CCO)Nc1nc(N)nc(C)c1Cc1ccc(CN(C)CC(N)=O)cc1OC
EC50 [6]: > 10000 nM | EC50 [3]: 55 nM
